Measured values from PubChem BioAssay AID330 (DTP/NCI, 2004).
Several values for one entry are separate records, joined by “and”; a condition that tells them apart may be missing. Identical values can stand only once. Inconclusive results and toxic doses are left out. The calls were made as follows: active = survival T/C of 150% or more; inactive = T/C below 125% in these data.

Tested on: P388 leukemia ip, CD2F1 mice, survival T/C
Assay: NCI In Vivo Anticancer Drug Screen. Data for tumor model P388 Leukemia (intraperitoneal) in CD2F1 (CDF1) mice
Conditions: endpoint: median survival time, higher = longer survival
How it was run: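 Mice carrying the transplanted tumor received test compound or vehicle. Survival was recorded in each group, and the value is the treated-group measurement divided by that of the vehicle-treated control group.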

[1] = dose: 25.0 mg/kg/injection, schedule: Q01DX005 (ip), vehicle: Klucel (hydroxypropylcellulose) (HPC)
[2] = dose: 50.0 mg/kg/injection, schedule: Q01DX005 (ip), vehicle: Klucel (hydroxypropylcellulose) (HPC)
[3] = dose: 100.0 mg/kg/injection, schedule: Q01DX005 (ip), vehicle: Klucel (hydroxypropylcellulose) (HPC)
[4] = dose: 200.0 mg/kg/injection, schedule: Q01DX005 (ip), vehicle: Klucel (hydroxypropylcellulose) (HPC)
[5] = dose: 7.5 mg/kg/injection, schedule: Q01DX005 (ip), vehicle: saline with Tween-80
[6] = dose: 15.0 mg/kg/injection, schedule: Q01DX005 (ip), vehicle: saline with Tween-80
[7] = dose: 100.0 mg/kg/injection, schedule: Q04DX003 (ip), vehicle: Klucel (hydroxypropylcellulose) (HPC)
[8] = dose: 200.0 mg/kg/injection, schedule: Q04DX003 (ip), vehicle: Klucel (hydroxypropylcellulose) (HPC)
[9] = dose: 100.0 mg/kg/injection, schedule: Q01DX001 (ip), vehicle: saline
[10] = dose: 200.0 mg/kg/injection, schedule: Q01DX001 (ip), vehicle: saline

Measured: T/C

CCCCCn1cc[nH]c1=S
inactive: dose: 12.5 mg/kg/injection, schedule: Q01DX005 (ip), vehicle: Klucel (hydroxypropylcellulose) (HPC) 101 % of control | [1] 104 % of control | [2] 100 % of control and 101 % of control | [3] 104 % of control | [4] 110 % of control

[N-]=[N+]=N/C=C1\CCOC1=O
inactive: [5] 101 % of control | [6] 100 % of control | dose: 30.0 mg/kg/injection, schedule: Q01DX005 (ip), vehicle: saline with Tween-80 99 % of control and 100 % of control | dose: 240.0 mg/kg/injection, schedule: Q01DX005 (ip), vehicle: saline with Tween-80 99 % of control

CS(=O)(=O)/C=C/COC(=O)/C=C/c1ccccc1
inactive: [1] 102 % of control | [2] 102 % of control | [3] 100 % of control | [4] 102 % of control

CCOP(=S)(N/N=C/c1ccc(Cl)s1)OCC
inactive: [2] 115 % of control | [3] 110 % of control | [4] 114 % of control

CC1OC(=O)C2=CCC(O)C(O)C2C1NC(=O)OCc1ccccc1 (stereo unspecified)
inactive: dose: 100.0 mg/kg/injection, schedule: Q01DX001 (ip), vehicle: saline with Tween-80 108 % of control | dose: 200.0 mg/kg/injection, schedule: Q01DX001 (ip), vehicle: saline with Tween-80 108 % of control | dose: 400.0 mg/kg/injection, schedule: Q01DX001 (ip), vehicle: saline with Tween-80 101 % of control

OC/C(Cl)=C(\Cl)CO
inactive: dose: 6.25 mg/kg/injection, schedule: Q01DX009 (ip), vehicle: saline 110 % of control | dose: 12.5 mg/kg/injection, schedule: Q01DX009 (ip), vehicle: saline 95 % of control | dose: 25.0 mg/kg/injection, schedule: Q01DX009 (ip), vehicle: saline 100 % of control

OCC1OC(n2cnc3c2NC=NC[C@H]3O)CC1O (stereo partly specified)
inactive: dose: 0.05 mg/kg/injection, schedule: Q03HX024 (ip), vehicle: clinical formulation 100 % of control | dose: 0.05 mg/kg/injection, schedule: Q03HX024 (ip), vehicle: water 99 % of control | dose: 0.1 mg/kg/injection, schedule: Q03HX024 (ip), vehicle: clinical formulation 100 % of control | dose: 0.1 mg/kg/injection, schedule: Q03HX024 (ip), vehicle: water 100 % of control | dose: 0.12 mg/kg/injection, schedule: Q01DX009 (ip), vehicle: water 111 % of control | dose: 0.13 mg/kg/injection, schedule: Q01DX009 (ip), vehicle: saline 112 % of control | dose: 0.2 mg/kg/injection, schedule: Q03HX024 (ip), vehicle: clinical formulation 100 % of control | dose: 0.2 mg/kg/injection, schedule: Q03HX024 (ip), vehicle: water 100 % of control | dose: 0.25 mg/kg/injection, schedule: Q01DX005 (ip), vehicle: water 101 % of control and 102 % of control | dose: 0.25 mg/kg/injection, schedule: Q01DX009 (ip), vehicle: saline 100 % of control and 119 % of control | dose: 0.25 mg/kg/injection, schedule: Q01DX009 (ip), vehicle: water 103 % of control and 111 % of control | dose: 0.25 mg/kg/injection, schedule: Q04DX002 (ip), vehicle: saline 99 % of control and 112 % of control | dose: 0.25 mg/kg/injection, schedule: Q04DX003 (ip), vehicle: saline 101 % of control | dose: 0.38 mg/kg/injection, schedule: Q01DX009 (ip), vehicle: saline 107 % of control | dose: 0.5 mg/kg/injection, schedule: Q01DX005 (ip), vehicle: water 99 % of control and 101 % of control | dose: 0.5 mg/kg/injection, schedule: Q01DX009 (ip), vehicle: saline 109 % of control and 110 % of control | dose: 0.5 mg/kg/injection, schedule: Q01DX009 (ip), vehicle: water 99 % of control and 118 % of control | dose: 0.5 mg/kg/injection, schedule: Q04DX002 (ip), vehicle: saline 106 % of control and 109 % of control | dose: 0.5 mg/kg/injection, schedule: Q04DX003 (ip), vehicle: saline 101 % of control | dose: 0.66 mg/kg/injection, schedule: Q01DX009 (ip), vehicle: saline 92 % of control | dose: 0.75 mg/kg/injection, schedule: Q01DX009 (ip), vehicle: saline 104 % of control | dose: 1.0 mg/kg/injection, schedule: Q01DX005 (ip), vehicle: water 102 % of control | dose: 1.0 mg/kg/injection, schedule: Q01DX009 (ip), vehicle: saline 107 % of control and 94 % of control | dose: 1.0 mg/kg/injection, schedule: Q01DX009 (ip), vehicle: water 101 % of control | dose: 1.5 mg/kg/injection, schedule: Q01DX009 (ip), vehicle: saline 103 % of control | dose: 2.0 mg/kg/injection, schedule: Q01DX005 (ip), vehicle: water 102 % of control | dose: 2.0 mg/kg/injection, schedule: Q01DX009 (ip), vehicle: saline 102 % of control | dose: 2.0 mg/kg/injection, schedule: Q01DX009 (ip), vehicle: water 86 % of control | dose: 3.0 mg/kg/injection, schedule: Q01DX009 (ip), vehicle: saline 107 % of control | dose: 4.0 mg/kg/injection, schedule: Q01DX005 (ip), vehicle: water 104 % of control | dose: 4.0 mg/kg/injection, schedule: Q01DX009 (ip), vehicle: water 86 % of control

COC(=O)C1=CN(c2ccccc2)C(=O)C1
inactive: [7] 118 % of control | [8] 114 % of control | dose: 400.0 mg/kg/injection, schedule: Q04DX003 (ip), vehicle: Klucel (hydroxypropylcellulose) (HPC) 108 % of control

CCC1(c2ccccc2)CCCC(C(N)=O)C1=O (stereo unspecified)
inactive: dose: 100.0 mg/kg/injection, schedule: Q01DX001 (ip), vehicle: Klucel (hydroxypropylcellulose) (HPC) 100 % of control | dose: 200.0 mg/kg/injection, schedule: Q01DX001 (ip), vehicle: Klucel (hydroxypropylcellulose) (HPC) 99 % of control | dose: 400.0 mg/kg/injection, schedule: Q01DX001 (ip), vehicle: Klucel (hydroxypropylcellulose) (HPC) 101 % of control

O=C1C=CC(CCCCCn2ccc(=O)[nH]c2=O)C(=O)N1 (stereo unspecified)
inactive: [9] 90 % of control | [10] 100 % of control | dose: 400.0 mg/kg/injection, schedule: Q01DX001 (ip), vehicle: saline 100 % of control

C1CCC2C(C1)CC[N-]C2CCC1[N-]CCC2CCCCC21.C1CCC2C(C1)CC[N-]C2CCC1[N-]CCC2CCCCC21.[Ni+2].[O-][Cl+3]([O-])([O-])O (stereo unspecified)
inactive: dose: 25.0 mg/kg/injection, schedule: Q01DX001 (ip), vehicle: saline 100 % of control | dose: 50.0 mg/kg/injection, schedule: Q01DX001 (ip), vehicle: saline 100 % of control and 101 % of control | [9] 101 % of control and 108 % of control and 97 % of control | [10] 98 % of control and 100 % of control

Cc1cc(C)cc(C(O)(CBr)CC(C)(Cl)Cl)c1 (stereo unspecified)
inactive: dose: 50.0 mg/kg/injection, schedule: Q01DX009 (ip), vehicle: saline + alcohol 114 % of control | dose: 100.0 mg/kg/injection, schedule: Q01DX009 (ip), vehicle: saline + alcohol 119 % of control | dose: 200.0 mg/kg/injection, schedule: Q01DX009 (ip), vehicle: saline + alcohol 120 % of control

Cc1ccc(S(=O)(=O)N2CCCN(S(=O)(=O)c3ccc(C)cc3)CCSCCCSCC2)cc1
inactive: dose: 25.0 mg/kg/injection, schedule: Q01DX009 (ip), vehicle: saline with Tween-80 98 % of control | dose: 50.0 mg/kg/injection, schedule: Q01DX009 (ip), vehicle: saline with Tween-80 87 % of control

CN=C1C=CC(=C(c2ccc(N(C)C)cc2)c2ccc(N(C)C)cc2)C=C1
inactive: dose: 6.25 mg/kg/injection, schedule: Q01DX005 (ip), vehicle: Klucel (hydroxypropylcellulose) (HPC) 119 % of control

C=CC12COC(=O)CC1CCC(=O)C2 (stereo unspecified)
inactive: [7] 99 % of control | [8] 100 % of control

C/C(=N\NC(=S)N1CC(C)OC(C)C1)c1ncccn1 (stereo unspecified)
inactive: [5] 104 % of control | [6] 98 % of control
